Measured values reported in BindingDB's records for PubMed 2867217 (Smith Kline & French Laboratories, 1986).
Values joined by “and” are separate entries in the source; they are usually repeats but may differ in a detail not shown here. Equal values may be shown once. Where a name gives a salt, the structure may show the parent alone.

Experiments:
[1] = biological target: T1, Alpha-1D adrenergic receptor (Mus musculus, UniProt P97714)
T1 sequence (P97714 whole entry): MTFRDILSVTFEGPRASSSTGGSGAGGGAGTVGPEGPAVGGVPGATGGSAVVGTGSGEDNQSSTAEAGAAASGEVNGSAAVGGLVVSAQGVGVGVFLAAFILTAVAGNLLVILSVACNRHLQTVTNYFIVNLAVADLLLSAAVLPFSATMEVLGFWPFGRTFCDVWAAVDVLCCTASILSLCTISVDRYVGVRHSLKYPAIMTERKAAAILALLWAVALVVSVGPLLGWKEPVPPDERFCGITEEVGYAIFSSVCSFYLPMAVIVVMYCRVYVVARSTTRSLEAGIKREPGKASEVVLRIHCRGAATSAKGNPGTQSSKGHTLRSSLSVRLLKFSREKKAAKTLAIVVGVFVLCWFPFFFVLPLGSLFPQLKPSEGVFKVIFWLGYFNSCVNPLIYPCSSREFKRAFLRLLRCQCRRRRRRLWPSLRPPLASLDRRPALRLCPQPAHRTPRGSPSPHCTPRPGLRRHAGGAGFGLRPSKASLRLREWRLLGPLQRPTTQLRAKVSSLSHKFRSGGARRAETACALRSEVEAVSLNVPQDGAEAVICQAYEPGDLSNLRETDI

[2] = biological target: T2, Alpha-1A adrenergic receptor (Oryctolagus cuniculus, UniProt O02824)
T2 sequence (O02824 whole entry): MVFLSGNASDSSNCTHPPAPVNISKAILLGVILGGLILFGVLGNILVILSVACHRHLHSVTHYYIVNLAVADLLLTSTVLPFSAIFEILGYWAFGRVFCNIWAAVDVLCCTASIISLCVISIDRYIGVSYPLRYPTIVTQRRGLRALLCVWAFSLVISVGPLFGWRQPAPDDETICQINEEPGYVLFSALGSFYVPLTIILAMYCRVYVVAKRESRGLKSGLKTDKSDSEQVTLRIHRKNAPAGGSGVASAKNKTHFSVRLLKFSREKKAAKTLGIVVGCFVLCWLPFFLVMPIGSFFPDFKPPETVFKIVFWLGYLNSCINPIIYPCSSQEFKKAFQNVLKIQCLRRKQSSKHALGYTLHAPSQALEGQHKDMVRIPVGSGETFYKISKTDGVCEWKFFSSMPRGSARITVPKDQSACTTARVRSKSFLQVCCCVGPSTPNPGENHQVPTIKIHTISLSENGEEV

[3] = biological target: T3, Alpha-1A adrenergic receptor (Canis lupus familiaris, UniProt O77621)
T3 sequence (O77621 whole entry): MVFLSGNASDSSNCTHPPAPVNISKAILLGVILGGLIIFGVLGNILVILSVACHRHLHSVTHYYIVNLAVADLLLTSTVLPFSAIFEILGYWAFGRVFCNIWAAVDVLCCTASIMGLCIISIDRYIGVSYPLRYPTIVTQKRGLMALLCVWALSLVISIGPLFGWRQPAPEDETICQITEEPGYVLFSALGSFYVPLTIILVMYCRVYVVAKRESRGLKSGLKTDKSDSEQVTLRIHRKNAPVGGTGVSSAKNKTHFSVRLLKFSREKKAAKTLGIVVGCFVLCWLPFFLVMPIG

[4] = biological target: T4, Alpha-2B adrenergic receptor (Canis lupus familiaris, UniProt Q2MDQ0)
T4 sequence (Q2MDQ0 whole entry): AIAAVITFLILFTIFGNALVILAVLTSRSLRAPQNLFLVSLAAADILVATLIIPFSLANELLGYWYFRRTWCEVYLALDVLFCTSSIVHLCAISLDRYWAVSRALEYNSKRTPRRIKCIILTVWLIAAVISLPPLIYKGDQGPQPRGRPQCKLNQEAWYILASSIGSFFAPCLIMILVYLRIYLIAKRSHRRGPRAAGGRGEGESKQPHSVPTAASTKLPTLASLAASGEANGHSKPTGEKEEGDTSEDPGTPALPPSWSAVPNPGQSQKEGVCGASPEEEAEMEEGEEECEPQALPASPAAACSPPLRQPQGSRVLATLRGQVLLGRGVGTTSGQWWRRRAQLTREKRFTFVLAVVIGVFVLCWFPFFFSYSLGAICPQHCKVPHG

[5] = biological target: T5, Alpha-2A adrenergic receptor (Cavia porcellus, UniProt Q60474)
T5 sequence (Q60474 whole entry): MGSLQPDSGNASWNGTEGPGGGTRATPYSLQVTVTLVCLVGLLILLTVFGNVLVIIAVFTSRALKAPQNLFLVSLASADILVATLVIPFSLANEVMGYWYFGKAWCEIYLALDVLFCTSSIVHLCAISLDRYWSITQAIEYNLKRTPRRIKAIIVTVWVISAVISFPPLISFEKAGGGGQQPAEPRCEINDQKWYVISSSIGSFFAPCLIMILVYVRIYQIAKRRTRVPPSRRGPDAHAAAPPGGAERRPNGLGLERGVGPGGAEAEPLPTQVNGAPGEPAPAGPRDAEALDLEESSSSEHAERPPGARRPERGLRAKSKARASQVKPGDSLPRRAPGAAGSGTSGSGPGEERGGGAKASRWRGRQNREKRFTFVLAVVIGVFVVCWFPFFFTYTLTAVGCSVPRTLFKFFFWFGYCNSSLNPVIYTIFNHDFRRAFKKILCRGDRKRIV

[6] = biological target: T6, Alpha-2B adrenergic receptor (Oryctolagus cuniculus, UniProt O77830)
T6 sequence (O77830 whole entry): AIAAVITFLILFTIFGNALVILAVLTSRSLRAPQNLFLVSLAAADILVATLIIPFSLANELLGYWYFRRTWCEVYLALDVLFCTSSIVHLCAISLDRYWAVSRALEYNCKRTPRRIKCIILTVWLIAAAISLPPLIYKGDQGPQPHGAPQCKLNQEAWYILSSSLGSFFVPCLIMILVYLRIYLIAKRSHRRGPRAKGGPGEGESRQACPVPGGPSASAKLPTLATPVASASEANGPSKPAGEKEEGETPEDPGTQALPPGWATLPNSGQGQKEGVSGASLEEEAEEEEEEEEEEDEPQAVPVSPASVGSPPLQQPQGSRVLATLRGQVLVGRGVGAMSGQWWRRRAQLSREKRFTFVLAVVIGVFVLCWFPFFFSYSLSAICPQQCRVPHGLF

Ki [6]	SMILES	Ki [1]	Ki [2]	Ki [3]	Ki [4]	Ki [5]
	c1ccc2c(c1)OCC(C1=NCCN1)O2 (stereo not given)	12 nM	2300 nM			
	CN1CCc2cccc(Cl)c2CC1 [MLS002172470]		900 nM	1100 nM	42 nM	13 nM
	COC(=O)[C@H]1[C@H]2C[C@H]3c4[nH]c5ccccc5c4CCN3C[C@H]2CC[C@@H]1O [RAUWOLSCINE HYDROCHLORIDE]		1800 nM and 4000 nM and 1300 nM	234 nM		
21 nM	COC(=O)[C@@H]1[C@H]2C[C@H]3c4[nH]c5ccccc5c4CCN3C[C@@H]2CC[C@@H]1O [yohimbic acid methyl ester]		1100 nM and 275 nM			
